This assay has as its system CEM cells HIV-1 protection, formazan growth assay. Kind of assay: NCI AIDS Antiviral Assay. Particulars: for IC50: measured here: growth of uninfected CEM cells. Summed up:
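Protection of CEM cells against HIV-1 was scored from cell growth (soluble formazan) across five concentrations, with parallel uninfected cells. Lack of protection may reflect toxicity.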

Calls of active or inactive are those of the source.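 The calls were made as follows: active = compounds giving half or more protection of infected cells from virus-caused growth loss, again on retest; inactive = the rest.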

As for `O=[N+]([O-])c1ccc(N2N=C(c3ccc(NCc4nc5ccccc5[nH]4)cc3)CC2c2ccco2)cc1` (configuration not stated), the EC50 is over 15.1 µM and the IC50 was over 15.1 µM.

`c1ccc2c(c1)ccc1c2nc2c3ccccc3[nH]n12`: the EC50 is 0.245 µM and the half-inhibitory concentration (IC50) stood at 10.7 µM.

In the case of `C/C=C(\NC(=O)C(CCCCN)NC(=O)C(C)NC(=O)C1CSC(C)C(NC(=O)C2CSCC(NC(=O)C(C)NC(=O)C(N)C(C)CC)C(=O)NC(CCCCN)C(=O)NC(Cc3ccccc3)C(=O)NC(CC(C)C)C(=O)N2)C(=O)N2CCCC2C(=O)NCC(=O)N1)C(=O)NCC(=O)NC1CSCC2NC(=O)C(Cc3ccc(O)cc3)NC(=O)C(CSC=CNC2=O)NC(=O)C(CC(N)=O)NC(=O)C(Cc2ccccc2)NC1=O` (configuration not stated), the result was inactive.

As for `O=C1Nc2ccccc2C12OCCS2` (configuration not stated), the outcome was inactive.

On to `C/C(=C1/N=C(c2cc([N+](=O)[O-])ccc2Cl)N(c2cccc(C)c2)C1=O)c1cc2ccccc2oc1=O`, for which the EC50 is over 7.59 µM and the IC50 was over 7.59 µM.

As for `O=C(O)CC1OCC=C2CN3CCC45C6=CC(=O)C(=O)C([N+](=O)[O-])=C6NC4C1C2CC35` (configuration not stated), the EC50 is over 200 µM and the IC50 was 28.2 µM.

`Cn1ccnc1C(c1nccn1C)C(C)(C)[N+](=O)[O-]`: the EC50 is over 339 µM and the IC50 was over 339 µM.

As to `C[n+]1cn(C2=C([O-])c3ccccc3C(=O)/C2=N\S(=O)(=O)c2ccccc2)c2ccccc21`, the EC50 was over 151 µM and the concentration for half-maximal inhibition (IC50) stood at 126 µM.

Regarding `N#CCN(CC#N)C1CC=CCC1N(CC#N)CC#N` (configuration not stated), the EC50 is over 200 µM and the IC50 turned out to be 102 µM.

For the compound `CN1CCC2(CC1)C(=O)N(NC(N)=O)C(=O)C2c1ccccc1` (configuration not stated), the EC50 was over 200 µM and the IC50 is over 200 µM.

As to `O=S(=O)(O)CC(O)CSSCC(O)CS(=O)(=O)O` (configuration not stated), the EC50 was over 200 µM and the concentration for half-maximal inhibition (IC50) is over 200 µM.

Turning to `CC1=CC[C@@H]2C(=O)C=CC=C[C@H]12.[C-]#[O+].[C-]#[O+].[C-]#[O+].[Fe]`, the EC50 was over 316 µM and the IC50 was found to be 178 µM.

Take `COC(=O)[C@@H]1C[C@]2(Br)c3ccccc3N(S(=O)(=O)c3ccccc3)[C@@H]2N1C(=O)OC`: the EC50 is over 200 µM and the half-inhibitory concentration (IC50) was 138 µM.

`Cc1c(-c2ccccc2)c(-c2ccc(OCCN(C)C)cc2)n2ccccc12`: the EC50 is over 200 µM and the half-inhibitory concentration (IC50) worked out at 10 µM.

Consider `COC(=O)C12C3C4C5(C(=O)OC)C(C1C35C(=O)N(C(C)C)C(C)C)C42C(=O)N(C(C)C)C(C)C` (configuration not stated), for which the EC50 was over 55 µM and the half-inhibitory concentration (IC50) is over 55 µM.

As for `Cc1ccc(/C=c2\cc3oc(=O)c4cccc(c4-3)c2=O)cc1`, the EC50 was over 200 µM and the half-inhibitory concentration (IC50) was determined as 3.8 µM.

For `N#Cc1c(C(N)=O)ncn1Cc1ccccc1`, the outcome was inactive.

As to `COc1ccc2c(c1)N(S(=O)(=O)c1ccc(C)cc1)CC1=C2CCP1(C)=O` (configuration not stated), the result was inactive.

Take `CN(C)C(n1cc2c(c1)-c1ccc(Cl)cc1C(c1ccccc1F)=NC2)n1cc2c(c1)-c1ccc(Cl)cc1C(c1ccccc1F)=NC2`: the EC50 was over 100 µM and the IC50 is 95.5 µM.

Take `CC(=O)n1nc(-c2ccc3ccccc3c2)nc1C`: the EC50 is over 200 µM and the 50% inhibitory concentration (IC50) stood at 79.4 µM.

`O=C1C=C(Nc2ccc([N+](=O)[O-])cc2)c2ccccc2C1=O`: the EC50 was over 6.76 µM and the IC50 was over 6.76 µM.

As to `CCOC(=O)Cn1c(=O)[nH]c(=O)c2[nH]cnc21`, the EC50 is over 1050 µM and the IC50 is over 1050 µM.

As to `CC12CCC(C(Nc3ccccn3)C1=O)C2(C)C` (configuration not stated), the result was inactive.

Regarding `CCOC(=O)C(/C(=N\NC(=O)OC)C(=O)Nc1cc(OC)ccc1OC)c1cnc2ccccc2n1` (configuration not stated), the EC50 was 81.3 µM and the IC50 stood at 138 µM.

`COc1cccc2c1C(CO)N1C(C#N)C3CC(C(=O)O)C(C1C2)N3C` (configuration not stated): the EC50 was over 0.355 µM and the half-inhibitory concentration (IC50) worked out at 0.0372 µM.

In the case of `CC(F)(C(N)=O)C(N)=O`, the EC50 is over 200 µM and the IC50 was over 200 µM.

For the compound `O=C(c1ccccc1)N1C(=S)N=C(Nc2ccccc2)C1=Nc1ccccc1`, the EC50 was over 200 µM and the concentration for half-maximal inhibition (IC50) is over 200 µM.

On to `O=[N+]([O-])C=C(c1ccc(Cl)cc1)c1ccc(Cl)cc1`, for which the result was inactive.

As for `CC1(c2ccc(F)cc2)C2C(=O)NC(=O)C1C(=O)NC2=O` (configuration not stated), the EC50 is over 871 µM and the IC50 came out at 575 µM.

For `CC(C)CN(CC(=O)Nc1cccc(Cl)c1)CC(C)C`, the EC50 was over 200 µM and the IC50 is 141 µM.

For the compound `COC(=O)c1cc2c(=O)n(C)c3ccccc3n2c1C(=O)OC`, the EC50 is over 56.2 µM and the half-inhibitory concentration (IC50) was determined as 32.4 µM.

For the compound `COc1cc2c3c(c1OC)C1(C=CC(=O)C=C1)C[C@H]3N(C)CC2`, the result was inactive.

`CCCC(=O)Nc1cc(C)c(NC(=O)CN(CC)CC)c(C)c1`: the EC50 was over 200 µM and the IC50 is over 200 µM.

In the case of `O=c1[nH]c(=O)n(COCCO)c2ccsc12`, the EC50 is over 200 µM and the half-maximal inhibitory concentration (IC50) is over 200 µM.

For the compound `Nc1ncnc2c1ncn2C1CCCCC1O` (configuration not stated), the EC50 was over 58.9 µM and the IC50 was over 58.9 µM.

On to `CC(=O)C1=C(C)N2C(=NC3=C(CCc4ccccc43)C2c2cccc(Br)c2)S1` (configuration not stated), for which the EC50 was over 200 µM and the IC50 turned out to be 81.3 µM.

With `OC1CCCC1C(O)(C(F)(F)F)C(F)(F)F` (configuration not stated), the result was inactive.

Turning to `Cn1cc(NC(=O)Nc2cc(C(=O)Nc3ccc4cc(S(=O)(=O)O)cc(S(=O)(=O)O)c4c3)n(C)c2)cc1C(=O)Nc1ccc2cc(S(=O)(=O)O)cc(S(=O)(=O)O)c2c1`, the concentration for a half-maximal effect (EC50) is 79.4 µM and the IC50 is over 200 µM.

Consider `SC[C@@H]1COC[C@H](CS)S1`, for which the EC50 is over 95.5 µM and the IC50 was over 95.5 µM.

Take `CC(C)Cn1cnnc1NS(=O)(=O)c1cc(C(=O)NN)c(Cl)cc1S`: the EC50 is over 200 µM and the half-inhibitory concentration (IC50) is over 200 µM.

With `NC1(C(=O)O)CCCC1c1ccccc1` (configuration not stated), the EC50 was over 6.61 µM and the IC50 was over 6.61 µM.

Regarding `O=C(NC1CC(NC(=O)OCc2ccccc2)C2c3ccccc3C12)OCc1ccccc1` (configuration not stated), the result was inactive.

On to `c1ccc(-c2nc(-c3ccccc3)n3c(-c4ccccc4)nnc3n2)cc1`, for which the EC50 is over 14.8 µM and the IC50 was over 14.8 µM.

As to `CC(=O)/C(=C/c1cccc(Br)c1)C(=O)c1ccccc1`, the EC50 is over 21.9 µM and the half-maximal inhibitory concentration (IC50) stood at 11.2 µM.

As for `O=C(O)/C=C/c1c2ccc(=O)cc-2oc2cc(O)ccc12`, the half-maximal effective concentration (EC50) is over 200 µM and the IC50 turned out to be 28.8 µM.

With `COc1cc(NCCN)c2ncsc2c1`, the EC50 is over 200 µM and the IC50 worked out at 85.1 µM.

For the compound `O=CNC12C(=O)NC(=O)C1(C(=O)O)C21CCCCC1` (configuration not stated), the EC50 was over 200 µM and the IC50 is over 200 µM.

Regarding `N#C/C(=C\c1ccccc1)c1ccccc1[N+](=O)[O-]`, the EC50 is over 200 µM and the IC50 was determined as 12.6 µM.

`CCCc1c(O)c2ccccc2[nH]c1=O`: the EC50 was over 200 µM and the half-maximal inhibitory concentration (IC50) is over 200 µM.

Consider `CC(=O)NC1C(OCc2ccccc2)OC(CO)C(O)C1OC(C)C(=O)NC(C)C(=O)N[C@@H](CCC(=O)OCCCNC1c2ccccc2Nc2cccc([N+](=O)[O-])c21)C(N)=O` (some centres not stated), for which the result was inactive.

Regarding `O=C(O)C(SC(=S)c1ccc(C(=S)SC(C(=O)O)c2ccccc2)cc1)c1ccccc1` (configuration not stated), the outcome was inactive.

Turning to `CN(/N=C/C=N/N(C)C1=NCCCN1)C1=NCCCN1`, the EC50 is 110 µM and the IC50 was over 200 µM.

Turning to `O=C1OCCc2c1[nH]c1ccccc21`, the EC50 is over 363 µM and the IC50 was 219 µM.

For `CCOC(=O)C(/C=N\C(=S)Nc1ccc(OCC)cc1)=C(/O)c1ccccc1`, the EC50 is over 200 µM and the IC50 was over 200 µM.

On to `CCn1c2c(c3ccccc31)CCSC2(C)CCN(C)C` (configuration not stated), for which the result was inactive.

For `COc1cccc(C(=O)O)c1Cc1cccc2ccccc12`, the outcome was inactive.

Consider `CC1CC/C(=C\c2ccc(F)cc2)C(=O)/C1=C/c1ccc(F)cc1` (configuration not stated), for which the EC50 was over 19.5 µM and the IC50 stood at 9.33 µM.

Turning to `CCOC(=O)C12C3C(=O)N(CC)C(=O)C3ON1OC1C(=O)N(CC)C(=O)C12` (configuration not stated), the EC50 was over 661 µM and the IC50 turned out to be 81.3 µM.

Take `O=C(NC(C(F)(F)F)(C(F)(F)F)P(=O)(Cc1ccccc1)Cc1ccccc1)C(C(F)(F)F)C(F)(F)F`: the result was inactive.

On to `COc1ccccc1N1C(=O)/C(=C\c2cccc(Oc3ccccc3)c2)SC1c1ccccc1` (configuration not stated), for which the EC50 was over 200 µM and the IC50 is 52.5 µM.

Take `CC(C)(C)c1cc(CCC(=O)Nc2ccccc2[N+](=O)[O-])cc(NC#N)n1`: the result was inactive.

Regarding `NC(CC(O)(c1ccccc1)c1ccccc1)c1ccccc1S` (configuration not stated), the EC50 is over 200 µM.

On to `C[C@@H]1c2c([nH]c(=O)[nH]c2=O)O[C@@H]1c1ccccc1`, for which the EC50 was over 200 µM and the IC50 was over 200 µM.

Take `CCOP(=O)(OCC)/C(C#N)=C/C=C/c1ccco1`: the EC50 is over 646 µM and the half-inhibitory concentration (IC50) came out at 148 µM.

For `Cc1cc2c(C(C)C)c(O)c(O)c(C=Nc3ccccc3O)c2c(O)c1-c1c(C)cc2c(C(C)C)c(O)c(O)c(C=Nc3ccccc3O)c2c1O`, the EC50 is over 200 µM and the half-inhibitory concentration (IC50) worked out at 3.24 µM.

In the case of `NC(CSS(=O)(=O)O)=NCC1CC2CCC1C2` (configuration not stated), the EC50 was over 200 µM and the IC50 was determined as 91.2 µM.

For the compound `Cc1ccc(SCC(O)=C2C(=O)CCCC2=O)cc1`, the EC50 was over 245 µM and the IC50 was determined as 158 µM.

`O=C(CN1CCN(c2ccccc2)CC1)c1ccc2[nH]c(=O)oc2c1`: the EC50 was over 200 µM and the IC50 was over 200 µM.

With `c1ccc2c3csc4ccccc4c-3nc2c1`, the result was inactive.

For the compound `CC1=NCCc2c1[nH]c1cc(O)ccc21`, the EC50 is over 398 µM and the IC50 was over 100 µM.

On to `CC1=NN(C(=O)c2ccccc2Br)C(=O)C1N=Nc1ccccc1C(=O)O` (configuration not stated), for which the result was inactive.

Take `CN(C)CCn1nc(N)c2nc3cc(C(F)(F)F)ccc3nc21`: the EC50 was over 100 µM and the IC50 came to 63.1 µM.

Turning to `CC1(C)CC(=O)C2=C(C1)Nc1ccccc1S2`, the outcome was inactive.

The record behind these values is PubChem BioAssay AID179 (DTP/NCI, 2004).
